Results on six molecules are retold here after US6369109B1, “Betulinic acid and derivatives thereof useful for the treatment of neuroectodermal tumor” (Deutsches Krebsforschungszentrum Stiftung des Offentlichen …, priority 1998, dated 2002).

Entries after “also recorded” stand apart in the source; their conditions may differ.

One data set deals with IMR-5 cells. The data set can be described thus: Specific apoptosis induction by betulinic acid derivatives. It counts as cell-based. The conditions noted are these: FIG. 17B. Here is the method:
(§1) Quantification of DNA fragmentation was performed by FACS analysis of propidium iodide stained nuclei as described in Nicoletti et al, 1991, J. Immunol. Methods. 139: 271-279. Cells were analyzed for DNA content by flow. cytometry (FACScan, Becton Dickinson, Heidelberg, Germany) using CELLQuest software. Early apoptotic changes were identified by staining with biotinylated annexin V (Bender Med Systems, Vienna, Austria) following the manufacturer's instructions. Annexin V binds to exposed phosphatidylserine on the surface of apoptotic cells. Koopman et al, 1994, Blood. 84:1415-1420. Cells were analyzed by flow cytometry (FAC-Scan. Becton Dickinson) using CELLQuest software.
(§2) More specifically, betulinic acid, 28-acetyl-3-β-D-glucosyl betulin (“B10”), 3-β-28-hydroxylup-20(29)-en-3-yl-β-D-glucopyranoside (“B11”), 3-β-3-hydroxylup-20(29)-en-28-yl-β-D-glucopyranoside (“B12”), and 3-(β-D-glucopyranosyloxy)lup-20(29)-en-28-oic acid (“B13”) have been tested for specific apoptosis induction using the assays shown in Example 2. See, supra. […] (FIG. 17B).

A further data set relates to Kelly cells. The description is as above. The following applies: FIG. 17C. In kind it is cell-based. Here is the method: as §1, §2
Data set [1] deals with melanoma cell line (MEL-2). The conditions noted are these: previously reported; cited from earlier work.
Data set [2] has as its system caspase-3, caspase-8 and PARP in cytosolic extracts from SHEP cells. Kind of data set: Cleavage of caspases in cytosolic extracts by cytochrome c or AIF. It counts as biochemical, human. The following applies: FIG. 11A. As to the method:
For determination of nuclear fragmentation, nuclei (10^3/μl) were incubated with mitochondria (1 μg/μl) in buffer D (10 mM HEPES, pH 7.4, 50 mM NaCl, 2 mM MgCl2, 5 mM EGTA, 1 mM DDT, 2 mM ATP, 10 mM phosphocreatine, 50 μg/ml creatine kinase, 10 μM cytochalasin B) for 2 h at 37° C. Nuclei were stained with propidium iodide ([…]) and analyzed by flow cytometry. For determination of caspase activation, cytosolic extracts (2 μg/μl) were incubated with mitochondria (1 μg/μl), cytochrome c (0.1-100 μM) or AIF-containing mitochondrial supernatant (0.5 μg/μl) in buffer D for 2 h at 37° C. Partially purified AIF (cytochrome c-free) was prepared as previously described (0.5 mg/ml, Susin et al., 1997, J. Exp. Med. 186, 5-37; Susin et al., 1996, J. Exp. Med. 184, 1331-41). Proteins were separated by 15% SDS-PAGE and Western blot analysis was performed as described above. To confirm equal loading of mitochondrial protein, all Western blots were also developed with an antibody directed against a 60 kDa mitochondrial antigen (data not shown).
Cytosolic extracts from SHEP cells were incubated with 0.1-100 μM cytochrome c. Immunodetection of caspases-3, -8 and PARP was performed as described in FIG. 9A.
Cytosolic extracts from SHEP cells transfected with a neomycin resistance vector only (Nec) or bcl-2 were incubated with partially purified AIF. Immunodetection of caspases-3, -8 and PARP was performed as described for FIG. 9A.
For determination of nuclear fragmentation, nuclei (10^3/μl) were incubated with mitochondria (1 μg/μl) in buffer D (10 mM HEPES, pH 7.4, 50 mM NaCl, 2 mM MgCl2, 5 mM EGTA, 1 mM DDT, 2 mM ATP, 10 mM phosphocreatine, 50 μg/ml creatine kinase, 10 μM cytochalasin B) for 2 h at 37° C. Nuclei were stained with propidium iodide ([…]) and analyzed by flow cytometry (Susin et al., 1997 Exp. Cell Res. 236:397-403). For determination of caspase activation, cytosolic extracts (2 μg/μl) were incubated with mitochondria (1 μg/μl), cytochrome c (10 μM) or AIF-containing mitochondrial supernatant (0.5 μg/μl) in buffer D for 2 h at 37° C. […]

[3] abbreviates: 0.1-100 μM (Ex. 3) or 10 μM (Ex. 4) cytochrome c, partially purified AIF or AIF-containing supernatant, 11B, 16B.

As to `C=C(C)C1CCC2(COC(C)=O)CCC3(C)C(CCC4C5(C)CCC(OC6OC(CO)C(O)C(O)C6O)C(C)(C)C5CCC43C)C12` [B10, 3β-28-(acetyloxy)lup-20(29)-en-3-yl-β-D-glucopyranoside], the “apoptotic activity compared to betulinic acid” value is reported as “enhanced apoptotic activity” in the data set with IMR-5 cells and “at least as high as betulinic acid” in the data set with Kelly cells.

For `C=C(C)[C@@H]1CC[C@]2(CO)CC[C@]3(C)[C@H](CC[C@@H]4[C@@]5(C)CC[C@H](O[C@@H]6O[C@H](CO)[C@@H](O)[C@H](O)[C@H]6O)C(C)(C)[C@@H]5CC[C@]43C)[C@@H]12` [B11, 3-β-28-hydroxylup-20(29)-en-3-yl-β-D-glucopyranoside], the “apoptotic activity compared to betulinic acid” value in the data set on IMR-5 cells was “about the same activity as betulinic acid”; in the data set with Kelly cells, “at least as high as betulinic acid”.

Consider `C=C(C)C1CCC2(COC3OC(CO)C(O)C(O)C3O)CCC3(C)C(CCC4C5(C)CCC(O)C(C)(C)C5CCC43C)C12` [B12, 3-β-3-hydroxylup-20(29)-en-28-yl-β-D-glucopyranoside], for which the “apoptotic activity compared to betulinic acid” value in the data set with IMR-5 cells is recorded as “enhanced apoptotic activity”; in the data set on Kelly cells, “at least as high as betulinic acid”.

Take `C=C(C)C1CCC2(C(=O)O)CCC3(C)C(CCC4C5(C)CCC(OC6OC(CO)C(O)C(O)C6O)C(C)(C)C5CCC43C)C12` [B13, 3-(β-D-glucopyranosyloxy)lup-20(29)-en-28-oic acid]: the “apoptotic activity compared to betulinic acid” value in the data set with IMR-5 cells is “enhanced apoptotic activity”; in the data set with Kelly cells it was “at least as high as betulinic acid”.

`C=C(C)[C@@H]1CC[C@]2(C(=O)O)CC[C@]3(C)[C@H](CC[C@@H]4[C@@]5(C)CC[C@H](O)C(C)(C)[C@@H]5CC[C@]43C)[C@@H]12` [betulinic acid, 3β-3-hydroxylup-20(29)-en-28-oic acid]: the cytotoxicity entry in data set [1] is reported as “exert cytotoxicity”.

As to cytochrome c, in data set [2] (setting [3]), the “cleavage of caspase-3 in cytosolic extracts” value was “triggered the proteolytic processing of caspase-3 to its active subunits; also recorded: resulted in the processing of caspase-3 and PARP”; the “cleavage of caspase-8 in cytosolic extracts” value is on record as “did not induce caspase-8 cleavage; also recorded: did not induce caspase-8 activation”. Also, the “cleavage of PARP in cytosolic extracts” value in data set [2] (0.1-100 μM cytochrome c) was “caused caspase-mediated cleavage of PARP”.
